In patent US9975911B2, “Antibacterial compounds and biological applications thereof” (LABORATOIRE BIODIM, priority 2012, dated 2018):
Read-outs that look alike come from different tables or passages of the source.

How the values were obtained:
[1] = system: E. coli C7 (O18:K1:H7); experiment: Combination with antibiotics on E. coli C7 (MIC of the antibiotics); assay type: cell-based; conditions: in the presence of 100 μM G6P; for MIC of the antibiotic alone: without test compound
Experimental: Combination with Antibiotics on E. coli C7 (018:K1:H7):
The compound to be tested was diluted in 50 mM HEPES buffer pH 7.4 from 10 mM stock solution. 5 μL of compound dilution or buffer were distributed in a sterile clear round bottom 96-well polystyrene microplate (Corning). 5 μL of serial 2-fold dilutions of reference antibiotics (Erythromycin (Fluka), Rifampicin (Fluka), or Synercid® (Monarch Pharmaceuticals)) in DMSO were added. An exponentially growing preculture of E. coli C7 (O18:K1:H7) in LB was diluted to 1e4 cfu/mL and supplemented with 100 μM G6P, and 90 μL of this suspension were added to the microplates. After overnight incubation at 37° C., the minimal inhibitory concentration (MIC) of the antibiotics were determined for each test compound concentration, as the lowest antibiotic concentration for which no bacterial pellet is visible without magnification.

[2] = target: GmhA of E. coli (Escherichia coli, UniProt P63224); experiment: Inhibition of the enzymatic activity of GmhA (luminescent assay); assay type: biochemical
Chain of GmhA of E. coli (P63224 whole entry): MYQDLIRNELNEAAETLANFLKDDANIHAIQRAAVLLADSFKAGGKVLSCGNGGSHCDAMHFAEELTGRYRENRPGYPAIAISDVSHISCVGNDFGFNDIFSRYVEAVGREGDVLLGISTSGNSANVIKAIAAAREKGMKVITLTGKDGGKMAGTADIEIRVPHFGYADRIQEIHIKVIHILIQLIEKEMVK
Experimental: Inhibition of the Enzymatic Activity of GmhA (Luminescent Assay):
The assay buffer “AB” contained 50 mM Hepes pH7.5, 1 mM MnCl2, 25 mM KCl, 0.012% Triton-X100, 1 mM dithiothreitol (DTT) and 0.1 μM Myelin basic protein (MBP). The following components were added in a white polystyrene Costar plate up to a final volume of 30 μL: 10 μL inhibitor dissolved in DMSO/water 50/50, and 20 μL GmhA of E. coli in AB. After 30 min of pre-incubation at room temperature, 30 μL of Substrates mix in AB were added in each well to a final volume of 60 μL. This reaction mixture was then composed of 2 nM GmhA, 3 μM sedoheptulose-7-phosphate (Sigma), 3 μM ATP (Sigma) and 50 nM HldE of E. coli in assay buffer. After 30 minutes of incubation at room temperature, 100 μL of the revelation mix were added to a final volume of 160 μL, including the following constituents at the respective final concentrations: 10000 light units/mL luciferase (Sigma), 20 μM D-luciferin (Sigma), 100 μM N-acetylcysteamine (Aldrich). Luminescence intensity was immediately measured on Luminoskan (Thermofisher) and converted into inhibition percentages. For IC50 determinations, the inhibitor was tested at 6 to 10 different concentrations, and the related inhibitions were fitted to a classical Langmuir equilibrium model using XLFIT (IDBS).

[3] = system: E. coli C7 (018:K1:H7) LPS heptosylation; experiment: Inhibition of E. coli C7 (018:K1:H7) LPS biosynthesis (LPS gel electrophoresis, Re-LPS band); assay type: cell-based; conditions: read-out: EC50 of E. coli C7 LPS heptosylation inhibition
Experimental: Inhibition of E. coli C7 (018:K1:H7) LPS Biosynthesis:
The inner core contains several heptose residues. An inhibitor of the LPS heptosylation pathway should therefore reduce dramatically the size of LPS from full-length to the so-called ‘Re-LPS’ limited to lipid A branched with 2 Kdo residues.
The effect of heptosylation inhibitors on E. coli LPS was assessed as described below. The compounds to be tested were prepared in deionised water/DMSO (50/50) solutions and added (25 μL) in sterile culture microtubes. The strain used in this study was E. coli C7 (018:K1:H7). The bacteria were isolated on tryptic soy agar (TSA) overnight. Isolated colonies were cultured in 10 mL of Luria-Bertani medium (LB) at 37° C. up to an optical density (OD) of typically 0.15. These exponentially growing bacteria were finally diluted to 5e5 cfu/mL and added in each well (225 μL) for incubation with the compounds at 37° C. for approximately 5 hours, up to an optical density of ≈0.2-0.4. Some test compounds e.g. phospho-sugars required Glucose-6-Phosphate (G6P, from Sigma) to be added in the culture medium in order to activate their active transport into the bacterial cytosol via the phospho-sugar transporter UhpT. This was achieved by adding in the culture tube 2.5 μL of a 10 mM water solution of G6P (100 μM final concentration).
Bacterial cultures were normalized via OD determination, pelleted and washed with 1 mL Phosphate-Buffer-Saline (PBS). The pellets were then denatured for 10 min at 95-100° C. in 50 μL of Sodium dodecyl sulphate 0.2% (SDS), beta-mercaptoethanol 1%, Glycerol 36%, Tris pH 7.4 30 mM and bromophenol blue 0.001%. Samples were cooled down to room temperature, supplemented with 1.5 μl of proteinase K at 20 mg/mL, incubated for 1 hour at 55° C. and centrifuged for […] at 13,000 rpm at 25° C. The resulting supernatant, containing LPS, was finally analysed by SDS-PAGE electrophoresis.
LPS SDS-PAGE Electrophoresis:
Polyacrylamide gels (16%/4% acrylamide for separation and concentration respectively) were prepared, loaded with 8 μL of LPS extracts and migrated.
Gels were incubated overnight in 5% acetic acid/40% ethanol/deionised water, treated by 1% periodic acid/5% acetic acid for 15 min, washed 4 times for 10 min in deionised water and finally incubated for 18 min in the dark in a silver nitrate solution composed of 56 mL NaOH 0.1N, 4 mL ammoniac 33%, 45 mL AgNO3 5% (Tsai and Frasch) and 195 mL deionised water. Gels were then washed extensively in deionised water for 30 min and incubated for 10-15 min (up to LPS bands apparition) in the revelation mix composed of 300 mL deionised water, 300 μL formaldehyde 36.5% (Fluka) and 100 μL citric acid 2.3M. The revelation was stopped by incubating the gels in acetic acid 10% for 5 min. Gels were finally washed in deionised water, numerized with a Samsung PL51 camera and analysed by ImageJ software. The percentage of inhibition of LPS heptosylation was defined as the relative area of the Re-LPS band compared to the cumulated areas of Re-LPS and Core-LPS bands.

[4] = test compound at concentrations <1 mM

CC[C@H]1OC(=O)[C@H](C)[C@@H](O[C@H]2C[C@@](C)(OC)[C@@H](O)[C@H](C)O2)[C@H](C)[C@@H](O[C@@H]2O[C@H](C)C[C@H](N(C)C)[C@H]2O)[C@](C)(O)C[C@@H](C)C(=O)[C@H](C)[C@@H](O)[C@]1(C)O [erythromycin, Erythromycin, reference compound] was tested, and the “MIC of the antibiotic alone” value [1] was 32 µg/mL.

O=CN(O)C(CO)[C@H](O)[C@H](O)[C@H](O)CCP(=O)(O)O (single isomer, unassigned) [Example 7] was tested, and the IC50 ([2]; read-out: IC50 GmhA E. coli) was 0.046 µM and the EC50 ([3]; Escherichia coli) was 220 µM.

O=CN(O)C[C@H](O)[C@H](O)[C@H](O)CC(F)P(=O)(O)O (stereo partly drawn) [Example 9, [1-Fluoro-6-(formyl-hydroxy-amino)-(3R,4R,5S)-3,4,5-trihydroxy-hexyl]-phosphonic acid] was tested, and the IC50 ([2]; IC50 GmhA E. coli) was 0.015 µM and the EC50 ([3]; Escherichia coli) was 76 µM.

O=CN(O)C[C@H](O)[C@H](O)[C@H](O)CCP(=O)(O)O [Example 3, [6-(Formyl-hydroxy-amino)-(3R,4R,5S)-3,4,5-trihydroxy-hexyl]-phosphonic acid] gave an IC50 ([2]; IC50 GmhA E. coli) of 0.003 µM and an EC50 ([3]; Escherichia coli) of 18 µM.

CO[C@H]1/C=C/O[C@@]2(C)Oc3c(C)c(O)c4c(O)c(c(/C=N/N5CCN(C)CC5)c(O)c4c3C2=O)NC(=O)/C(C)=C\C=C\[C@H](C)[C@H](O)[C@@H](C)[C@@H](O)[C@@H](C)[C@H](OC(C)=O)[C@@H]1C [rifampicin, Rifampicin, reference compound] was tested, and the “MIC of the antibiotic alone” value [1] was 4 µg/mL.

Compound O=CN(O)C(CO)[C@H](O)[C@H](O)[C@H](O)CCP(=O)(O)O (single isomer, unassigned) [Example 8] has an IC50 ([2]; read-out: IC50 GmhA E. coli) of 0.027 µM and an EC50 [3] of 180 µM.

In the case of O=CN(O)C[C@H](O)[C@H](O)[C@H](O)COP(=O)([O-])O.[Na+] [Example 2, N-hydroxy-N-formylamino-1-deoxy-D-ribitol-5-phosphate], the IC50 ([2]; read-out: IC50 GmhA E. coli) is reported as 0.0024 µM, the EC50 ([3]; Escherichia coli) is reported as 18 µM and the “MIC of Synercid in combination with the compound” value [1, 4] is reported as 8 µg/mL. The “MIC of erythromycin in combination with the compound” value [1, 4] was 1 µg/mL, the “MIC of rifampicin in combination with the compound” value [1, 4] was 0.25 µg/mL and the “potentiation of Synercid” value [1, 4] was 16 fold. The potentiation of erythromycin [1, 4] was 32 fold and the potentiation of rifampicin [1, 4] was 16 fold.
